From PMC10269165 (Antimicrobial Agents and Chemotherapy, 2023)
Where two headings read alike, the source gives them in different places.

Key:
[1] = system: susceptible isolate of H. contortus, exsheathed L3 larvae; assay: Larval motility assay (LMA), Worminator; assay type: cell-based, Haemonchus contortus; settings: for anthelmintic activity in LMA: first round, up to 125 μM, any time point
Description: The H. contortus isolates used were TxPh-2011-S (Texas A&M University, USA) and UGA MDR 2020 (University of Georgia Athens, USA). TxPh-2011-S (Texas A&M University, USA) was originally isolated from Pronghorn antelope in West Texas in 2011 and is fully drug susceptible, phenotypically determined by the DrenchRite larval development assay (LDA; Microbial Screening Technologies, Kemps Creek, Australia). To establish this as a laboratory isolate, it was initially passaged in goats at Texas A&M University and then at The University of Georgia using both goats and sheep, and it is currently maintained in lambs at Louisiana State University. A nemabiome assay ([69]) was conducted at the University of Calgary to confirm that the isolate is 100% H. contortus. The UGA MDR 2020 (University of Georgia Athens, USA) isolate is resistant to ivermectin, benzimidazoles, levamisole, and moxidectin, as determined by the DrenchRite LDA. To establish this as a laboratory isolate, feces collected from a sheep farm in Georgia with known history of multiple anthelmintic resistance were cultured. Two donor goats were infected with the larvae recovered, which were morphologically ([70]) identified as 89% H. contortus. A fecal egg count reduction test (FECRT) was then performed in the infected goats. First, a combination treatment with albendazole at 15 mg/kg and ivermectin at 0.4 mg/kg was performed, followed by a treatment with levamisole at 12 mg/kg. Later, and to confirm resistance to moxidectin, another treatment was administered using a dose of 0.4 mg/kg of moxidectin. Posttreatment feces were recovered, coprocultures were established, and L3 larvae were identified as 100% H. contortus. Resistance to all drugs was subsequently confirmed using a DrenchRite assay.
For LMAs, the first phase testing using compounds NSC133100 and NSC177383 was done using the Worminator system in parallel with the LDA. Initial stock solutions of 12.5 mM were prepared for each compound using 100% DMSO as a solvent. Initial stock solutions (25 μL) were then diluted in 475 μL of culture media to yield working stock solutions of 625.00, 156.30, 39.10, 9.80, 2.40, 0.60, 0.20, 0.04, and 0.00 μM in 5% DMSO for each drug. In plate, 200 μL of working stock solutions were then diluted in 800 μL of culture media, yielding concentrations of 125.00, 31.25, 7.81, 1.95, 0.49, 0.12, and 0.00 μM in 1% DMSO. For the second phase of testing, compounds showing anthelmintic activity with the LDA were tested in a second round at higher concentrations than in the first phase of testing. Initial stocks of 50 mM were prepared for compounds NSC133100, NSC177383, NSC145612, and NSC56410 using 100% DMSO as a solvent. Initial stock solutions (25-μL portions) were then diluted in 475 μL of culture media consisting of 65% Lauria-Bertani (LB) (Thermo Fisher Scientific, Branchburg, NJ), 25% NCTC (Sigma-Aldrich), 10% fetal bovine serum (Atlanta Biologicals, Flowery Branch, GA), Pen/Strep (Sigma-Aldrich) at a final concentration of […], and amphotericin B (Sigma-Aldrich) at a final concentration of […]. The working stock solutions yielded concentrations of 2,500.00, 625.00, 156.30, 39.10, 9.80, 2.40, and 0.00 μM in 5% DMSO for each compound. In each well in the plate, 200 μL of working stock solutions were then diluted in 800 μL of culture media, yielding final concentrations of 500.00, 125.00, 31.30, 7.81, 1.95, 0.49, and 0.00 μM in 1% DMSO.
For the motility assays, 24-well plates with inserts were used (Costar, catalog no. 3379; Corning, Inc., Corning, NY). Portions (640 μL) of culture media were added to each well, and approximately 50 exsheathed larvae contained in 160 μL of culture media in each insert. Once pretreatment readings were taken, 160 μL of the drug solution was added to the well, and another 40 μL was added to the insert, reaching the final concentrations described in the protocol above. All concentrations were tested in triplicate. […]

[2] = system: catechol O-methyltransferase (COMT); design: method as in PMID 15755652, doi:10.1007/s40495-018-0157-y; settings: cited from earlier work
[3] = system: catechol O-methyltransferase (COMT); design: method as in PMID 15755652, doi:10.1007/s40495-018-0157-y; settings: cited from earlier work; remark: listed apart in the source

**Q.** For CO[C@H]1/C=C/O[C@@]2(C)Oc3c(C)c(O)c4c(O)c(cc(O)c4c3C2=O)NC(=O)/C(C)=C\C=C\[C@H](C)[C@H](O)[C@@H](C)[C@@H](O)[C@@H](C)[C@H](OC(C)=O)[C@@H]1C [NSC133100], which “Percent inhibition of larval motility” value ([1]; 0.12 µM, 1 hour) is on record?
**A.** -7.4%

**Q.** And the “Percent inhibition of larval motility” value ([1]; 0.12 µM, 4 hours)?
**A.** 14.9%

**Q.** And the “Percent inhibition of larval motility” value ([1]; 0.12 µM, 24 hours)?
**A.** 22.9%

**Q.** What about the “Percent inhibition of larval motility” value ([1]; 0.12 µM, 48 hours) of the same molecule?
**A.** 8.7%

**Q.** And the “Percent inhibition of larval motility” value ([1]; 0.12 µM, 72 hours)?
**A.** 26.1%

**Q.** And the “Percent inhibition of larval motility” value ([1]; 0.12 µM, 96 hours)?
**A.** 7.4%

**Q.** And the “Percent inhibition of larval motility” value ([1]; 0.12 µM, Initial)?
**A.** -93.9%

**Q.** What about the “Percent inhibition of larval motility” value ([1]; 0.49 µM, 1 hour) of the same molecule?
**A.** -29.1%

**Q.** What about the “Percent inhibition of larval motility” value ([1]; 0.49 µM, 4 hours) of the same molecule?
**A.** 4.3%

**Q.** What about the “Percent inhibition of larval motility” value ([1]; 0.49 µM, 24 hours) of the same molecule?
**A.** 8.0%

**Q.** What about the “Percent inhibition of larval motility” value ([1]; 0.49 µM, 48 hours) of the same molecule?
**A.** -9.5%

**Q.** And the “Percent inhibition of larval motility” value ([1]; 0.49 µM, 72 hours)?
**A.** -14.9%

**Q.** What about the “Percent inhibition of larval motility” value ([1]; 0.49 µM, 96 hours) of the same molecule?
**A.** -9.0%

**Q.** And the “Percent inhibition of larval motility” value ([1]; 0.49 µM, Initial)?
**A.** -118.5%

**Q.** And the “Percent inhibition of larval motility” value ([1]; 1.95 µM, 1 hour)?
**A.** -57.6%

**Q.** What about the “Percent inhibition of larval motility” value ([1]; 1.95 µM, 4 hours) of the same molecule?
**A.** -16.4%

**Q.** And the “Percent inhibition of larval motility” value ([1]; 1.95 µM, 24 hours)?
**A.** -8.4%

**Q.** What about the “Percent inhibition of larval motility” value ([1]; 1.95 µM, 48 hours) of the same molecule?
**A.** -37.5%

**Q.** What about the “Percent inhibition of larval motility” value ([1]; 1.95 µM, 72 hours) of the same molecule?
**A.** -49.0%

**Q.** And the “Percent inhibition of larval motility” value ([1]; 1.95 µM, 96 hours)?
**A.** -50.7%

**Q.** And the “Percent inhibition of larval motility” value ([1]; 1.95 µM, Initial)?
**A.** -159.9%

**Q.** What about the “Percent inhibition of larval motility” value ([1]; 7.81 µM, 1 hour) of the same molecule?
**A.** 27.5%

**Q.** And the “Percent inhibition of larval motility” value ([1]; 7.81 µM, 4 hours)?
**A.** 9.1%

**Q.** What about the “Percent inhibition of larval motility” value ([1]; 7.81 µM, 24 hours) of the same molecule?
**A.** 25.3%

**Q.** What about the “Percent inhibition of larval motility” value ([1]; 7.81 µM, 48 hours) of the same molecule?
**A.** 35.3%

**Q.** What about the “Percent inhibition of larval motility” value ([1]; 7.81 µM, 72 hours) of the same molecule?
**A.** 32.1%

**Q.** What about the “Percent inhibition of larval motility” value ([1]; 7.81 µM, 96 hours) of the same molecule?
**A.** 38.0%

**Q.** What about the “Percent inhibition of larval motility” value ([1]; 7.81 µM, Initial) of the same molecule?
**A.** -74.0%

**Q.** What about the “Percent inhibition of larval motility” value ([1]; 31.25 µM, 1 hour) of the same molecule?
**A.** 10.6%

**Q.** And the “Percent inhibition of larval motility” value ([1]; 31.25 µM, 4 hours)?
**A.** 7.1%

**Q.** What about the “Percent inhibition of larval motility” value ([1]; 31.25 µM, 24 hours) of the same molecule?
**A.** 9.0%

**Q.** And the “Percent inhibition of larval motility” value ([1]; 31.25 µM, 48 hours)?
**A.** 35.2%

**Q.** And the “Percent inhibition of larval motility” value ([1]; 31.25 µM, 72 hours)?
**A.** 19.9%

**Q.** What about the “Percent inhibition of larval motility” value ([1]; 31.25 µM, 96 hours) of the same molecule?
**A.** 28.7%

**Q.** And the “Percent inhibition of larval motility” value ([1]; 31.25 µM, Initial)?
**A.** -64.8%

**Q.** And the “Percent inhibition of larval motility” value ([1]; 125 µM, 1 hour)?
**A.** 4.3%

**Q.** And the “Percent inhibition of larval motility” value ([1]; 125 µM, 4 hours)?
**A.** -12.0%

**Q.** And the “Percent inhibition of larval motility” value ([1]; 125 µM, 24 hours)?
**A.** 3.2%

**Q.** And the “Percent inhibition of larval motility” value ([1]; 125 µM, 48 hours)?
**A.** 23.2%

**Q.** What about the “Percent inhibition of larval motility” value ([1]; 125 µM, 72 hours) of the same molecule?
**A.** 3.1%

**Q.** What about the “Percent inhibition of larval motility” value ([1]; 125 µM, 96 hours) of the same molecule?
**A.** 19.2%

**Q.** And the “Percent inhibition of larval motility” value ([1]; 125 µM, Initial)?
**A.** -8.9%

**Q.** What about the “anthelmintic activity in LMA” value [1] of the same molecule?
**A.** no anthelmintic activity

**Q.** Which “inhibition of COMT catalytic activity” value [2] does the source give for O=c1c(O)cccc2cc(O)c(O)c(O)c12 [NSC35676, purpurogallin] here?
**A.** inhibit the catalytic activity

**Q.** What about the “inhibition of COMT catalytic activity” value [3] of the same molecule?
**A.** inhibit the catalytic activity

**Q.** Which results are given for CO[C@@H]1/C=C/O[C@@]2(C)Oc3c(C)c(O)c4c(c3C2=O)C(=N[C@@H]2CC[C@@H](O)O[C@H]2C)C=C(NC(=O)/C(C)=C\C(=O)[C@@H]2C[C@@H]2[C@H](O)[C@@H](C)[C@@H](O)[C@@H](C)[C@H](OC(C)=O)[C@@H]1C)C4=O [NSC177383]?
**A.** Percent inhibition of larval motility ([1]; 0.12 µM, 1 hour): 29.41%; Percent inhibition of larval motility ([1]; 0.12 µM, 4 hours): 4.95%; Percent inhibition of larval motility ([1]; 0.12 µM, 24 hours): 28.20%; Percent inhibition of larval motility ([1]; 0.12 µM, 48 hours): 2.41%; Percent inhibition of larval motility ([1]; 0.12 µM, 72 hours): 4.89%; Percent inhibition of larval motility ([1]; 0.12 µM, 96 hours): -16.32%; Percent inhibition of larval motility ([1]; 0.12 µM, Initial): -1.62%; Percent inhibition of larval motility ([1]; 0.49 µM, 1 hour): 25.94%; Percent inhibition of larval motility ([1]; 0.49 µM, 4 hours): 18.27%; Percent inhibition of larval motility ([1]; 0.49 µM, 24 hours): 23.09%; Percent inhibition of larval motility ([1]; 0.49 µM, 48 hours): 12.98%; Percent inhibition of larval motility ([1]; 0.49 µM, 72 hours): -5.94%; Percent inhibition of larval motility ([1]; 0.49 µM, 96 hours): -72.91%; Percent inhibition of larval motility ([1]; 0.49 µM, Initial): -11.69%; Percent inhibition of larval motility ([1]; 1.95 µM, 1 hour): 30.56%; Percent inhibition of larval motility ([1]; 1.95 µM, 4 hours): 33.37%; Percent inhibition of larval motility ([1]; 1.95 µM, 24 hours): 18.80%; Percent inhibition of larval motility ([1]; 1.95 µM, 48 hours): 14.16%; Percent inhibition of larval motility ([1]; 1.95 µM, 72 hours): -3.70%; Percent inhibition of larval motility ([1]; 1.95 µM, 96 hours): -23.78%; Percent inhibition of larval motility ([1]; 1.95 µM, Initial): 21.82%; Percent inhibition of larval motility ([1]; 7.81 µM, 1 hour): 26.94%; Percent inhibition of larval motility ([1]; 7.81 µM, 4 hours): 26.72%; Percent inhibition of larval motility ([1]; 7.81 µM, 24 hours): 22.63%; Percent inhibition of larval motility ([1]; 7.81 µM, 48 hours): 34.44%; Percent inhibition of larval motility ([1]; 7.81 µM, 72 hours): 14.00%; Percent inhibition of larval motility ([1]; 7.81 µM, 96 hours): -53.76%; Percent inhibition of larval motility ([1]; 7.81 µM, Initial): 22.03%; Percent inhibition of larval motility ([1]; 31.25 µM, 1 hour): 14.47%; Percent inhibition of larval motility ([1]; 31.25 µM, 4 hours): 38.95%; Percent inhibition of larval motility ([1]; 31.25 µM, 24 hours): 18.83%; Percent inhibition of larval motility ([1]; 31.25 µM, 48 hours): 26.89%; Percent inhibition of larval motility ([1]; 31.25 µM, 72 hours): 16.58%; Percent inhibition of larval motility ([1]; 31.25 µM, 96 hours): -23.43%; Percent inhibition of larval motility ([1]; 31.25 µM, Initial): 28.34%; Percent inhibition of larval motility ([1]; 125 µM, 1 hour): 42.55%; Percent inhibition of larval motility ([1]; 125 µM, 4 hours): 10.81%; Percent inhibition of larval motility ([1]; 125 µM, 24 hours): 16.94%; Percent inhibition of larval motility ([1]; 125 µM, 48 hours): 42.97%; Percent inhibition of larval motility ([1]; 125 µM, 72 hours): 27.79%; Percent inhibition of larval motility ([1]; 125 µM, 96 hours): 41.45%; Percent inhibition of larval motility ([1]; 125 µM, Initial): 22.02%; anthelmintic activity in LMA [1]: no anthelmintic activity
